This is an account of results in US10392398B2, “Inhibitors of Late SV40 Factor (LSF) as cancer chemotherapeutics” (TRUSTEES OF BOSTON UNIVERSITY, priority 2010, dated 2019).

Data set [1] deals with T1, LSF (Homo sapiens, UniProt Q12800).
T1 sequence (Q12800 1-502): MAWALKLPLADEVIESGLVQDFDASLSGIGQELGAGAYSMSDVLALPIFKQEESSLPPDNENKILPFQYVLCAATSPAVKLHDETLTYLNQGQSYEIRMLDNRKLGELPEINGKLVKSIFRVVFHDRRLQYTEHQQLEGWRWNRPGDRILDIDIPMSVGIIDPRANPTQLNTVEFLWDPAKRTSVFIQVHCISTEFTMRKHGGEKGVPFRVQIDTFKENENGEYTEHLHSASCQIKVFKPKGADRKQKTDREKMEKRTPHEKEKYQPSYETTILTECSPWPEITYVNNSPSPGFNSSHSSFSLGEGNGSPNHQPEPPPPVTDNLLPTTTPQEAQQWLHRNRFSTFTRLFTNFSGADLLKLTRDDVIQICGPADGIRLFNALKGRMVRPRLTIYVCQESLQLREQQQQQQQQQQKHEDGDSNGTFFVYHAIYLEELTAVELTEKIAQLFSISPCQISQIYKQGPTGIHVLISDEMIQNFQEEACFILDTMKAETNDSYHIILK
Put plainly: Cellular Thermal Shift Assay (CETSA), LSF. The format is binding. Also on record: expressed in transfected cells. The protocol:
Drug-target engagement was assessed using CETSA as described by Molina et al. (Monitoring Drug-Target Engagement in Cells and Tissues Using Cellular Thermal Shift Assay. Science (2013) 341, 84-87). QGY-7703 cells were cultured at 37° C. in 5% CO2 in DMEM (Dulbecco's modification of Eagle's Medium; Corning) supplemented with 10% Fetal Bovine Serum (FBS; Invitrogen). Cells were seeded into 10 cm plates and allowed to reach 60-80% confluency. After trypsinization (0.05% Trypsin-EDTA, Invitrogen), cell pellet was washed twice with ice-cold 1×PBS (137 mM NaCl, 2.7 mM KCl, 10 mM Na2HPO4, 2 mM KH2PO4, pH 7.2). Cell pellet was lysed by addition of 200 μL freshly prepared ice-cold RIPA buffer (10 mM Tris-Cl pH 8.0, 1 mM EDTA, 0.5 mM EGTA, 1% Triton X-100, 0.1% sodium deoxycholate, 0.1% SDS, 140 mM NaCl) supplemented with 1 mM Pefabloc (Sigma-Aldrich), and flash frozen in liquid nitrogen and thawed for a total of three cycles. Cell lysate was centrifuged at 20,000×g for 20 minutes to clarify. Supernatant was either treated immediately or saved at −80° C. for future use. […]
Immunoblots were quantified using Image J and graphed using GraphPad PRISM. Area-under-the-curve (AUC) for the quantified western blots were calculated with GraphPad PRISM and non-parametric t-test was calculated to determine statistical significance between the curves. […]

Data set [2] deals with T1, LSF. The data set is described as follows: Chromatin immunoprecipitation of myc-LSF-HA binding to the endogenous POLA1 promoter. The settings on record: human cell line. The format is cell-based. Also on record: expressed in transfected cells. As to the method: (§1) USF-dependent reporter assays were performed with FQI1 only. Averages with standard deviation (SD) derive from 3-4 independent experiments. […] “−LSF”: translation extract with no programmed LSF. […] Myc-LSF-HA expression was induced with the small molecule inducer RSL1. In induced cells, FQI1 or vehicle was added for the final 12 h of myc-LSF-HA induction.

The target in data set [3] is T1, LSF. Put plainly: Electrophoretic mobility shift assay (EMSA) of LSF DNA-binding. The format is biochemical. Particulars: in vitro translated LSF. As to the method:
LSF was translated in vitro as previously described^16 for use in EMSAs. Protein was preincubated with inhibitor or DMSO and then incubated with 0.5 μg poly d(I-C) for 15 min at 4° C. in 40 mM KCl, 15 mM HEPES pH 7.9, 1 mM EDTA, 0.5 mM DTT, 5% glycerol. Finally, radiolabelled double-stranded DNA ([…]—SEQ ID NO: 5- and its complement) were added for a 30-min incubation at 30° C. Results were visualized using a PhosphorImager and quantified using ImageQuant software.
On the technique in general: In EMSA bound probe runs differently from free probe, usually more slowly.

For a further data set, the system named is USF. Put plainly: USF-dependent reporter assay. The format is cell-based. As to the method:
as §1
On the technique in general: In a reporter assay the amount or activity of a reporter protein is the signal.

In another data set the test system is QGY-7703 cells. The data set is described as follows: TUNEL apoptosis assay, QGY-7703. The settings on record: QGY-7703, 10 μM. The format is cell-based. The protocol: HCC cells were plated 24 h prior to incubation with FQI1. At the indicated time points, cells were analyzed using the FragEL™ DNA fragmentation kit (Calbiochem) according to the manufacturer's protocol. Flow cytometry was performed using a FACS caliber (Becton Dickinson) and analyzed with Cell Quest software.

The test system of the next data set is QGY-7703 HCC cells. Put plainly: HCC cell viability (MTT), QGY-7703. The format is cell-based. As to the method: Cells were plated at 3×10^4 cells/mL, A549 and HeLa, and 1×10^4 cells/mL, NIH/3T3, in 96-well plates and incubated for 24 h to allow for cell adhesion. LSF-library compounds were dissolved in DMSO, serial diluted in appropriate medium and added to cells in triplicate (2 plates). DMSO was added to control wells at a final concentration of 1%. After 72 h incubation in the presence of compound, confluent cells were assayed for growth proliferation with CellTiter 96® AQueous One Solution Cell Proliferation Assay (MTS) (Promega) according to the manufacturer's protocol. Plates were read at 490 nm on a microplate reader, and IC50 values were determined as the percentage of compound-treated cell growth to control cell growth. HCC cells—one hour after plating HCC cells onto 96-well plates, compound or vehicle (DMSO) was added to the desired concentrations, keeping DMSO at 0.5%. At indicated time points, cell viability was assayed using the CellTiter 96® Non-Radioactive Cell Proliferation Assay (MTT) (Promega).

Setting [4] is: rats, single IV dose, 50 mg/mL dose level as printed.

Procedure for Rat tolerability: The purpose of the study was to determine the tolerability of FQI-34 in rats as administered by IV at 3 dose levels-5, 15, and 50 mg/kg. FQI-34 was formulated in 20% DMSO/50% PEG-400/30% saline, and administered by IV at 5 mL/kg for compound or 10 mL/kg for vehicle alone. 6 rats per dose arm were used (3 male and 3 female), with single dose administration with monitoring over 14 days. Gross necropsy was performed at the end of the study.

Regarding `CCOc1cc(N(C)C)ccc1C1CC(=O)Nc2cc3c(cc21)OCO3` (stereo not drawn) [FQI-34, 8-(4-(dimethylamino)-2-ethoxyphenyl)-7,8-dihydro-[1,3]dioxolo[4,5-g]quinolin-6(5H)-one], the gross necropsy entry in “Rat tolerability” (end of study, 14 days after single IV dose of 5, 15 or 50 mg/kg) was “no abnormal findings”. In addition, in the data set “Rat tolerability” (excluding the male rat B, 5, 15 and 50 mg/kg IV, 14 days), the “condition of all rats for duration of study” value was “within normal limits”. For the same compound, the “observations in all other rats at this dose level” value in the data set “Rat tolerability” (rats, single IV dose, 15 mg/mL dose as printed, 14 days) was “remained normal throughout the study”. Moreover, the mortality entry in the data set “Rat tolerability” (rats, single IV dose, 15 mg/mL dose as printed, believed to be due to stress and not compound related) is “Male Rat B died”. Also, in “Rat tolerability” (setting [4]), the observations upon dosing entry was “pronation, increased respiratory rate, and decreased activity”; the “time until rats returned to normal” value is no more than 30 min. Moreover, on LSF [1] (QGY-7703 lysate, 500 μM), the “binding to LSF by CETSA” value is given as “directly binds”. Also, the “LSF CETSA” value on LSF [1] (Table 5, YES/NO) is listed as “YES”.
On to `CCOc1ccccc1C1CC(=O)Nc2cc3c(cc21)OCO3` (racemic) [FQI1, 8-(2-ethoxyphenyl)-7,8-dihydro-[1,3]dioxolo[4,5-g]quinolin-6(5H)-one], for which the “binding of inducible HA-tagged LSF to the POLA1 promoter (ChIP)” value on LSF [2] is recorded as “efficiently blocked”. Also, at LSF [3], the “modulation of LSF DNA-binding in EMSA” value is “initial enhancement at low concentrations and inhibition at higher concentrations”. In the data set with USF, the “transactivation of a USF-dependent reporter by USF” value is reported as “unaffected”. Besides, the “apoptosis in flow cytometric TUNEL assay” value in the data set on QGY-7703 cells is 90%. Also, the “effect of exogenous thymidine on treated cell viability profiles” value in the data set on QGY-7703 HCC cells (QGY-7703, 20 μM thymidine) was “not affected”. Also, in the data set on QGY-7703 HCC cells (QGY-7703, between 24 and 48 hours), the “concentration at which decrease in HCC cell viability was observable” value was 2 µM. Also, in the data set with QGY-7703 HCC cells (in words), the “cellular proliferation of QGY-7703 cells (MTT)” value is on record as “decreased overall cellular proliferation”.
